Assay results published in BindingDB's records for doi:10.1016/j.bmcl.2005.08.114 (Wyeth Research, 2005).

Assay: Reduction of viral RNA and protein in Huh7 cells containing HCV sub-genomic replicon

## CCC[C@]1(CC(=O)O)OCCc2c1sc1c(C)cc(F)c(C#N)c21 [((R)-5-cyano-6-fluoro-8-methyl-1-propyl-3,4-dihydro-1H-benzo[4,5]thieno[2,3-c]pyran-1-yl)-acetic acid]
  EC50: 3.2 µM
